Data reported in patent US6716819B2, “Use of xylitol to reduce ionic strength and activate endogenous antimicrobials for prevention and treatment of infections” (University of Iowa Research Foundation, priority 2000, dated 2004).

Experiments:
non-CF epithelia [1] = type: in vitro ADME, human
Experimental: FIGS. 1(A-C). Permeability of xylitol added to the apical surface of non-CF epithelia. Xylitol (138 mM in 60 μl) was added to the apical surface of differentiated airway epithelia at time zero. Apical liquid was removed and volume determined at times indicated. Xylitol was measured by NMR. Data are mean±SEM; n=4. Some SEM bars are hidden by symbols.
Airway epithelial cells were isolated from tracheal and bronchial tissue. Cells were seeded onto collagen-coated, semi-permeable membranes (0.6 cm^2 Millicel-HA; Millipore, Bedford, Mass.) and grown at the air-liquid interface as previously described (Smith, J. J., S. M. Travis, E. P. Greenberg, and M. J. Welsh. 1996. Cystic fibrosis airway epithelia fail to kill bacteria because of abnormal airway surface fluid. Cell. 85:229-236; and erratum 287(222); Yamaya, M., W. E. Finbeiner, S. Y. Chun, and J. H. Widdicombe. 1992. Differentiated structure and function of cultures from human tracheal epithelium. Am. J. Physiol. 262:L713-L724; Zabner, J., B. G. Zeiher, E. Friedman, and M. J. Welsh. 1996. […] All epithelia were evaluated with scanning electron microscopy for the development of a ciliated apical surface.
Proton nuclear magnetic resonance spectroscopy was used to measure the xylitol concentration in the fluid on the apical surface. […] Concentrations were then determined by comparing the measured peak integral to a standard curve for xylitol. […]

non-CF epithelia [2] = experiment: Liquid absorption by airway epithelia; type: cell-based, human; conditions: 60 μl saline/xylitol mixtures apical, 4 hours, increasing xylitol concentration
Experimental: (§1) FIG. 2. Effect of apical xylitol on rate of liquid absorption by non-CF and CF epithelia. Sixty μl of saline solution, xylitol solution, or indicated mixtures of the two were applied to the apical surface. Four hours later the solution was removed to measure rate of liquid absorption. A short incubation period was chosen to avoid secondary changes in the epithelium due to the large volume of apical liquid. Data are mean±SEM; n=15 from 3 different experiments. Some SEM bars are hidden by symbols.
(§2) Airway epithelial cells were isolated from tracheal and bronchial tissue. […] All epithelia were evaluated with scanning electron microscopy for the development of a ciliated apical surface.
(§3) Liquid absorption was measured using methods similar to those previously described (Smith, J. J., P. H. Karp, and M. J. Welsh. 1994. Defective fluid transport by cystic fibrosis airway epithelia. J. Clin. Invest. 93:1307-1311). […] After incubation for 4 hours, apical solutions were collected under mineral oil and their volume measured as previously described (Zabner, J., J. J. Smith, P. H. Karp, J. H. Widdicombe, and M. J. Welsh. 1998. Loss of CFTR chloride channels alters salt absorption by cystic fibrosis airway epithelia in vitro. Mol. Cell. 2:397-403; Smith, J. J., P. H. Karp, and M. J. Welsh. 1994. Defective fluid transport by cystic fibrosis airway epithelia. J. Clin. Invest. 93:1307-1311). […]

CF epithelia = experiment: Liquid absorption by airway epithelia; type: cell-based, human; conditions: 60 μl saline/xylitol mixtures apical, 4 hours, increasing xylitol concentration
Experimental: as §1, §2, §3

[3] = incorporated in chewing gum; cited from earlier work

With `OC[C@@H](O)[C@H](O)[C@@H](O)CO` [xylitol] the xylitol permeability (non-CF epithelia [1]) was “not high”, the “time after which approximately half the applied xylitol would diffuse to the basolateral surface” value (non-CF epithelia [1]; human, 138 mM) was ~11 h and the “rate of liquid absorption” value (non-CF epithelia [2]) was “reduced the rate of liquid absorption”. For the same molecule, the “rate of liquid absorption” value (CF epithelia) was “reduced the rate of liquid absorption” and the “effect on dental caries” value [3] was “prevent dental caries”.
